The values below come from article PMC12441834, “Highly Potent and Subtype-Selective Sperm-Specific Potassium Channel SLO3 Inhibitors Display High Tissue Exposure in the Murine Female Reproductive Tract” (ACS Pharmacology & Translational Science, 2025).

One series is described as follows: Kinetic solubility. Particulars: aqueous buffer, kinetic from dmso stock; pH 2.2; pH 6.8; read-out: Kinetic Solubility (pH 2.2; pH6.8). In kind it is physicochemical.
Series [1] can be described thus: Intrinsic clearance in liver microsomes. The class given is in vitro ADME, human. Particulars: for Human CLhep, % Hepatic blood flow: human liver microsomes; for CLhep predicted at 1 μM: human, liver microsomes, pH 7.4, human liver microsomes, read-out: Human CLhep (in vitro hepatic clearance from microsomal CLint). As for the experimental part:
The in vitro intrinsic clearance (CLint) was investigated in commercially obtained hepatic microsomes from mouse, rat, and human donors using the substrate depletion (i.e., loss-of-parent vs time, or half-life (t 1/2) method) approach with analyte detection via liquid chromatography–tandem mass spectrometry (LC-MS/MS). For each species, mean %parent remaining values at each time point were calculated from replicate raw data (analyte:IS peak area ratios) and used to determine in vitro t 1/2 and CLint.
Experiments were carried out by using a robot-assisted liquid handler (Bravo with BenchCell, Agilent). The compound was incubated (1 μM final concentration) in buffer (100 mM potassium phosphate pH 7.4 with 3 mM MgCl2) containing hepatic microsomes (0.5 mg/mL final concentration) from each species, discretely, at 37 °C under constant orbital shaking. After 5 min (preincubation), reactions were initiated by the addition of nicotinamide adenine dinucleotide phosphate (NADPH, 1 mM final concentration). At selected time intervals (0, 3, 7, 15, 25, and 45 min) postaddition of NADPH, aliquots (50 μL) were taken and placed into a 96-shallow-well plate containing ice-cold acetonitrile (150 μL) with carbamazepine (IS, 50 nM). The plates were then centrifuged (3000 rcf at 4 °C) for 10 min. The supernatants were transferred to a new 96-shallow-well daughter plate and diluted (1:1 v/v) with water (Milli-Q filtered). The plates were then sealed for preparation for LC-MS/MS analysis (see below).
Analyte:IS peak area ratios generated by LC-MS/MS were used to construct natural log-transformed %parent remaining vs time plots (using t = 0 min post-NADPH addition sample data as the starting point set to 100%). In vitro compound t 1/2 values were calculated by using the following equation: t1/2=ln(2)/k where k is the slope from the linear regression analysis of the natural log-transformed data (using means from all replicates at each time point). Resulting t 1/2 values were then used to calculate hepatic CLint values according to the following equation and with the use of species-specific scale-up factors for liver weight (grams) per total body weight (kg): CLint=0.693/invitrot1/2×1mLincubation/0.5mgmicrosomes×45mgmicrosomes/1gramliver×garamliver/kgbodywt
^aScale-up factors used are 45 (rat) and 20 (human).
Predicted hepatic clearance (CLhep) was calculated by using the following equation: CLhep=Qh×CLint/Qh+CLint
Q h represents hepatic blood flow (mL/min/kg): 21 for humans, 70 for rats, and 90 for mouse.

Another series has as its target T1, hSLO2.1 (Homo sapiens, UniProt Q6UVM3).
T1 construct: expressed in transfected cells; host or cells: HEK
T1 sequence (Q6UVM3 1-1135): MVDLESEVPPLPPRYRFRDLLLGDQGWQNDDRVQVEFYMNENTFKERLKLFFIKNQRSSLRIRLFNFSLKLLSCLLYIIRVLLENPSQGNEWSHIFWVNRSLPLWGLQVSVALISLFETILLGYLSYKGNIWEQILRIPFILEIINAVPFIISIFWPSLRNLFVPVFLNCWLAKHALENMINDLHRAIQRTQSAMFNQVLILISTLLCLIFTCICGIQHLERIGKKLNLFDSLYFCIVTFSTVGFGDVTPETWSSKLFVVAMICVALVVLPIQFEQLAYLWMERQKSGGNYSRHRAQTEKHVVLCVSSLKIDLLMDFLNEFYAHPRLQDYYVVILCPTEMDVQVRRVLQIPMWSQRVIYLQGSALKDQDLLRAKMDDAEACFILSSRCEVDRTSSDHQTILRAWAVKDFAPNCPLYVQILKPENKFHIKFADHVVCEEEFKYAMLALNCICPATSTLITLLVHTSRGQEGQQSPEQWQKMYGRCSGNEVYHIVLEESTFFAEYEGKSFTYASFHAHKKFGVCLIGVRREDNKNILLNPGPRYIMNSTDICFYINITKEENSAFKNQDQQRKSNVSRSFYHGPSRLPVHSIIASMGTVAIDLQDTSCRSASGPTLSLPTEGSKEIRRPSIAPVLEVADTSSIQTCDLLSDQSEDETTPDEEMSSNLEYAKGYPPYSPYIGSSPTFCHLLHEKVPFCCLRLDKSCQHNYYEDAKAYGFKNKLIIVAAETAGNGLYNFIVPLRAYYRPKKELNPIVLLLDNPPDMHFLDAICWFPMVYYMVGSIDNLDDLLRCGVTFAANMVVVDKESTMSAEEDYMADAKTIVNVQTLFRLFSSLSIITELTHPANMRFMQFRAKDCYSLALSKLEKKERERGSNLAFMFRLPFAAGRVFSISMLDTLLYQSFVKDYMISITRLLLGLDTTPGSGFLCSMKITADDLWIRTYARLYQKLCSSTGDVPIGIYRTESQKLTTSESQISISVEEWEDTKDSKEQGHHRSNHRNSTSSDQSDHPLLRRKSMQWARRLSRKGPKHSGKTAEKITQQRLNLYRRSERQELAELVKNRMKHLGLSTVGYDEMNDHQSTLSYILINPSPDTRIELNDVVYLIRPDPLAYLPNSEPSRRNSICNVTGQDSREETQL
In words: SLO2.1 inhibition in HEK cells. The class given is cell-based. The note with it: HEK293; read-out: HEK hSLO2.1 % inhib. 10 μM.

Structures are written as SMILES.

Consider `O=C(c1ccc(OCc2ccc(OC(F)(F)F)cc2)cc1)N1CCN(c2ccc(C(F)(F)F)cn2)CC1` [VU6032735], for which the kinetic solubility in the series “Kinetic solubility” is less than 0.95 µM. For the same compound, in series [1], the “Human CLhep, % Hepatic blood flow” value was 23% and the CLhep predicted at 1 μM is 4.8 mL/min/kg. The inhibition at 10 µM at hSLO2.1 was found to be 22%.
With `Cc1cc(Cl)cc2sc(OC3CCN(C(=O)CCCS(=O)(=O)c4cccc(Br)c4)CC3F)nc12` (stereo not drawn) [VU6045330], the inhibition at 10 µM on hSLO2.1 was 22%.
As for `Cc1cc(Cl)cc2sc(O[C@H]3CCN(C(=O)CCCS(=O)(=O)c4cccc(Br)c4)C[C@H]3F)nc12` [VU6047606], the solubility (kinetic) in the series “Kinetic solubility” was less than 0.85 µM. In series [1], the “Human CLhep, % Hepatic blood flow” value was found to be 74% and the CLhep predicted at 1 μM is greater than 15 mL/min/kg. For the same compound, the inhibition at 10 µM at hSLO2.1 is 4%.
Consider `Cc1cc(Cl)cc2sc(O[C@@H]3CCN(C(=O)CCCS(=O)(=O)c4cccc(Br)c4)C[C@H]3F)nc12` [VU6047607], for which the solubility (kinetic) in “Kinetic solubility” was less than 0.85 µM. Besides, in series [1], the “Human CLhep, % Hepatic blood flow” value came to 82% and the CLhep predicted at 1 μM is 17.2 mL/min/kg.
For the compound `Cc1cc(Cl)cc2sc(O[C@@H]3CCN(C(=O)CCCS(=O)(=O)c4cccc(Br)c4)C[C@@H]3F)nc12` [VU6047608], the kinetic solubility in the series “Kinetic solubility” is less than 0.85 µM. Besides, in series [1], the “Human CLhep, % Hepatic blood flow” value came to 82% and the CLhep predicted at 1 μM is 17.1 mL/min/kg.
On to `Cc1cc(Cl)cc2sc(O[C@H]3CCN(C(=O)CCCS(=O)(=O)c4cccc(Br)c4)C[C@@H]3F)nc12` [VU6047609], for which the solubility (kinetic) in the series “Kinetic solubility” was less than 0.85 µM. Further, in series [1], the “Human CLhep, % Hepatic blood flow” value turned out to be 75% and the CLhep predicted at 1 μM was 15.8 mL/min/kg.

Usually solubility (kinetic) stands for the concentration staying in solution when a stock, usually in DMSO, is diluted into the medium.
